In patent US6406720B1, “Cosmetic containing plant extracts” (Laboratoires Serobiologiques (Societe Anonyme), priority 1997, dated 2002):

Test system: tyrosinase
Experiment: anti-tyrosinase action (oxidation of L-DOPA to DOPACHROME, Mason's method)
Type: biochemical
Conditions: concentration which halves the initial speed of DOPACROME formation
Method: To determine the de-pigmenting power of the extracts, their tyrosinase action was evaluated by measuring the product of oxidising L-DOPA to DOPACHROME (by HS Mason's method, 1948), carrying out the following stages: […]
mixing tyrosinase with L-DOPA in the phosphate buffer with an automatic pipette recording the optical density at 475 nm for 2 minutes, then calculating the initial speed of the enzyme reaction and determining the C150 (concentration which halves the initial speed of DOPACROME formation).

- C150 anti-tyrosinase effect in %: 0.025%
Compound: Oc1ccc(O)cc1 [Hydroquinone]
